From PubChem BioAssay AID2060511 (Molecular Pharmacology Branch, DTP, NCI, 2025)

System: 422866-222-R5-J1-PDC spheroids with HUVEC/MSC, viability
Assay: Anticancer human tumor 422866-222-R5-J1-PDC patient-derived pancreatic adenocarcinoma cell line growth inhibition [GQUAD]
Settings: for IC50: curve of first compound; for viability, T/C: stronger effect = lower value
Description: DNA G-quadruplex Stabilizer Agents in Combinations in Complex Spheroids
A high-throughput screen of multi-cell type tumor spheroids was designed to identify active combinations of DNA G-quadruplex stabilizer agents and targeted small molecules. Complex spheroids include a stromal component modeled by human endothelial cells (HUVEC) and fibroblasts modeled by human mesenchymal stem cells (MSCs). The concentration ranges selected for each drug and investigational agent were based upon clinically achievable concentrations if the clinical Cmax of the agent was known.
Compounds. The drugs and investigational agents: pidnarulex (CX-5461; NSC782164), APTO-253 (NSC789042), BRACO-19 (NSC847499), peposertib (NSC802822), ceralasertib (NSC780249), elimusertib (NSC800525), camonsertib (NSC841442), AZD-1390 (NSC803789), olaparib (NSC753686), talazoparib (NSC767125), ART-558 (NSC835418), sotorasib (NSC818433), MRTX-1133 (NSC836407), SN-38 (NSC673596), topotecan (NSC609699), etoposide (NSC141540), doxorubicin (NSC123127), gemcitabine (NSC613327), 5-fluorouracil (NSC19893), paclitaxel (NSC125973), vemurafenib (NSC761431), panobinostat (NSC761190), R-306465 (JNJ-16241199; NSC773264), adavosertib (NSC754352), TP-3654 (NSC805149), carboplatin (NSC241240), KSQ-4279 (NSC840948), and staurosporine (NSC755774) were obtained from the National Cancer Institute (NCI) Developmental Therapeutics Program Chemical Repository (34). The FDA-approved anticancer drug set is available from the NCI Developmental Therapeutics Program. […] The stock solutions were prepared in dimethyl sulfoxide (DMSO, Sigma-Aldrich, St. Louis, MO, cat. D2650) at 800-fold the tested concentration and stored at -70 degrees C prior to their use. All drugs and investigational agents were tested over a range starting from a high concentration at or near the clinical Cmax and decreasing in half-log increments. If the clinical Cmax for an agent had not been determined, the highest concentration tested was 10 microM.
2.3 Cell Culture. All cells were maintained in an incubator at 37 degrees C and 5% CO2 with 95% humidity. The PDC lines were cultured according to standard operating procedures established by the NCI PDMR. All PDCs were thawed and cultured in Matrigel-coated flasks prepared with a working solution of 1X Ham's F-12 nutrient mix, without supplementation (Invitrogen, cat. 11765054), 100 U/mL penicillin-streptomycin (Invitrogen, cat. 15140122), and 2.5% Matrigel (Corning Inc., cat. 354248) for the first three passages. The 857933-349-R-J2-PDC line was cultured in 6C/Colon 1B media, which includes advanced DMEM/F-12 (Thermo Fisher Scientific, cat. 12634028), 10 mM HEPES (Thermo Fisher Scientific, cat. 15630080), 1X GlutaMAX supplement (Thermo Fisher Scientific, cat. 35050061), 0.1 mg/mL primocin (InvivoGen, cat. ant-pm-2), 10% defined fetal bovine serum, heat inactivated (HyClone Laboratories Inc., cat. SH30070.03HI), 50% L-WRN conditioned media (ATCC, cat. CRL-3276), 1.25 mM N-Acetyl-L-cysteine (Sigma-Aldrich, cat. A9165), 10 mM nicotinamide (Sigma-Aldrich, cat. N0636), 1X B-27 supplement (Thermo Fisher Scientific, cat. 17504044), 1X N-2 supplement (Thermo Fisher Scientific, cat. 17502048), 10 microM Y-27632 dihydrochloride (Tocris Bioscience, cat. 1254), and 50 ng/mL human EGF recombinant protein (Thermo Fisher Scientific, cat. PHG0311). The 485176-168-R4-J1-PDC line was cultured in Panc media, which includes all 6C/Colon 1B media components plus 100 ng/mL human FGF-10 (Thermo Fisher Scientific, cat. 100-26), 500 nM SB-431542 (Selleckchem, cat. S1067), and gastrin (Tocris, cat. 3006).
[…]

[1] = second compound 0.0316 µM, first compound 0.0316 µM
[2] = second compound 0.0316 µM, first compound 0.316 µM
[3] = second compound 0.1 µM, first compound 0.0316 µM
[4] = second compound 0.1 µM, first compound 0.316 µM
[5] = second compound 0.316 µM, first compound 0.0316 µM
[6] = second compound 0.316 µM, first compound 0.316 µM
[7] = second compound 1 µM, first compound 0.0316 µM
[8] = second compound 1 µM, first compound 0.316 µM
[9] = second compound 3.16 µM, first compound 0.0316 µM
[10] = second compound 3.16 µM, first compound 0.316 µM
[11] = second compound 10 µM, first compound 0.0316 µM
[12] = second compound 10 µM, first compound 0.316 µM
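Also: spheroids exposed to compounds for seven days before reading.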
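For viability, T/C in this document: percent viability relative to DMSO vehicle control taken as 100%.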

COc1ccc([C@@H](O)c2cc(-c3ncnc4cc(N5CCOCC5)ccc34)c(F)cc2Cl)nn1 + CN(C)c1ccc(Nc2c3ccc(NC(=O)CCN4CCCC4)cc3nc3cc(NC(=O)CCN4CCCC4)ccc23)cc1
IC50 (second compound 0.0316 µM): 2850 nM | IC50 (second compound 0.1 µM): 2240 nM | IC50 (second compound 0.316 µM): 2360 nM | IC50 (second compound 1 µM): 2030 nM | IC50 (second compound 3.16 µM): 1800 nM | IC50 (second compound 10 µM): 876 nM | viability, T/C [1]: 97.8% | viability, T/C (second compound 0.0316 µM, first compound 0.1 µM): 96.5% | viability, T/C [2]: 73.9% | viability, T/C (second compound 0.0316 µM, first compound 1 µM): 76.7% | viability, T/C (second compound 0.0316 µM, first compound 3.16 µM): 42.2% | viability, T/C (second compound 0.0316 µM, first compound 10 µM): 34.5% | viability, T/C [3]: 98.8% | viability, T/C (second compound 0.1 µM, first compound 0.1 µM): 86.9% | viability, T/C [4]: 79.1% | viability, T/C (second compound 0.1 µM, first compound 1 µM): 63.5% | viability, T/C (second compound 0.1 µM, first compound 3.16 µM): 41.5% | viability, T/C (second compound 0.1 µM, first compound 10 µM): 38.5% | viability, T/C [5]: 90.6% | viability, T/C (second compound 0.316 µM, first compound 0.1 µM): 91.2% | viability, T/C [6]: 75% | viability, T/C (second compound 0.316 µM, first compound 1 µM): 67.1% | viability, T/C (second compound 0.316 µM, first compound 3.16 µM): 43.4% | viability, T/C (second compound 0.316 µM, first compound 10 µM): 31.8% | viability, T/C [7]: 80.2% | viability, T/C (second compound 1 µM, first compound 0.1 µM): 67.3% | viability, T/C [8]: 76% | viability, T/C (second compound 1 µM, first compound 1 µM): 57.2% | viability, T/C (second compound 1 µM, first compound 3.16 µM): 45.2% | viability, T/C (second compound 1 µM, first compound 10 µM): 34.8% | viability, T/C [9]: 69.7% | viability, T/C (second compound 3.16 µM, first compound 0.1 µM): 81.6% | viability, T/C [10]: 65.5% | viability, T/C (second compound 3.16 µM, first compound 1 µM): 57.9% | viability, T/C (second compound 3.16 µM, first compound 3.16 µM): 43.1% | viability, T/C (second compound 3.16 µM, first compound 10 µM): 29.9% | viability, T/C [11]: 92.2% | viability, T/C (second compound 10 µM, first compound 0.1 µM): 81.3% | viability, T/C [12]: 67.2% | viability, T/C (second compound 10 µM, first compound 1 µM): 44.6% | viability, T/C (second compound 10 µM, first compound 3.16 µM): 44% | viability, T/C (second compound 10 µM, first compound 10 µM): 34.9%

Cn1ncnc1[C@H]1c2n[nH]c(=O)c3cc(F)cc(c23)N[C@@H]1c1ccc(F)cc1 + CN(C)c1ccc(Nc2c3ccc(NC(=O)CCN4CCCC4)cc3nc3cc(NC(=O)CCN4CCCC4)ccc23)cc1
IC50 (second compound 0.0316 µM): > 316 nM | IC50 (second compound 0.1 µM): > 316 nM | IC50 (second compound 0.316 µM): > 316 nM | IC50 (second compound 1 µM): > 316 nM | IC50 (second compound 3.16 µM): > 316 nM | IC50 (second compound 10 µM): > 316 nM | viability, T/C (second compound 0.0316 µM, first compound 0.000999 µM): 112% | viability, T/C (second compound 0.0316 µM, first compound 0.00316 µM): 93.7% | viability, T/C (second compound 0.0316 µM, first compound 0.00999 µM): 108% | viability, T/C [1]: 97.2% | viability, T/C (second compound 0.0316 µM, first compound 0.0999 µM): 80.6% | viability, T/C [2]: 75.1% | viability, T/C (second compound 0.1 µM, first compound 0.000999 µM): 113% | viability, T/C (second compound 0.1 µM, first compound 0.00316 µM): 95.9% | viability, T/C (second compound 0.1 µM, first compound 0.00999 µM): 88% | viability, T/C [3]: 93.5% | viability, T/C (second compound 0.1 µM, first compound 0.0999 µM): 83% | viability, T/C [4]: 75.7% | viability, T/C (second compound 0.316 µM, first compound 0.000999 µM): 94.1% | viability, T/C (second compound 0.316 µM, first compound 0.00316 µM): 90% | viability, T/C (second compound 0.316 µM, first compound 0.00999 µM): 81.5% | viability, T/C [5]: 85% | viability, T/C (second compound 0.316 µM, first compound 0.0999 µM): 89.1% | viability, T/C [6]: 67.3% | viability, T/C (second compound 1 µM, first compound 0.000999 µM): 78.9% | viability, T/C (second compound 1 µM, first compound 0.00316 µM): 81.3% | viability, T/C (second compound 1 µM, first compound 0.00999 µM): 75.9% | viability, T/C [7]: 91.5% | viability, T/C (second compound 1 µM, first compound 0.0999 µM): 73.7% | viability, T/C [8]: 72% | viability, T/C (second compound 3.16 µM, first compound 0.000999 µM): 72.3% | viability, T/C (second compound 3.16 µM, first compound 0.00316 µM): 69.7% | viability, T/C (second compound 3.16 µM, first compound 0.00999 µM): 89.5% | viability, T/C [9]: 83% | viability, T/C (second compound 3.16 µM, first compound 0.0999 µM): 80.1% | viability, T/C [10]: 80.3% | viability, T/C (second compound 10 µM, first compound 0.000999 µM): 97.7% | viability, T/C (second compound 10 µM, first compound 0.00316 µM): 85.1% | viability, T/C (second compound 10 µM, first compound 0.00999 µM): 97.4% | viability, T/C [11]: 90.4% | viability, T/C (second compound 10 µM, first compound 0.0999 µM): 71.8% | viability, T/C [12]: 82.1%
